One experiment has as its system A20 mouse lymphoma cells. The experiment in a line: Growth of s.c. implanted A20 lymphoma in Balb/c mice receiving 2FF in drinking water. In kind it is in vivo, mouse (Balb/c). Particulars: 20 mM 2FF in drinking water from day 0; s.c. A20 tumors, 20 days; versus control group (FIG. 2). The procedure:
20 Balb/c mice were implanted with A20 cells (0.2 mL of 5×10^6 cells s.c./mouse), one group of mice consisting of 10 animals received 2FF (20 mM in drinking water) from day 0 to termination of study. A20 lymphoma tumors were allowed to grow out and mice sacrificed after 20 days.

The subject of the next experiment is primary human T cells. Kind of experiment: Ex-vivo expansion of human peripheral T cells with 2FF, surface fucosylation by flow cytometry (LCA surface staining). Particulars: 100 μM 2FF, 10 days in culture, CD3/CD28 beads + IL2; LCA surface staining (FIG. 4). The format is cell-based. The procedure: T cells were isolated from 10 mL of whole blood which was centrifuged first at 1200 rpm (300×g) for 10 min (without brakes). The top layer containing platelets was removed carefully without disrupting the white blood cell layer. Then RosetteSep™ Human T-Cell Enrichment Cocktail (Pan T Cells from StemCell technologies) was added to the remaining blood (500 μLAO mL blood). This was incubated for 20 min and then 1 mL FBS was added along with 10 mL PBS. Histopaque (20-25 mL) placed in a 50 mL Falcon the prepared blood/PBS solution was overlaid very slowly. This was centrifuged with no brake (25° C., 1500 rpm, 25 min). The top layer was removed and the T cells in the buffy coat layer were then removed to a new 50 mL tube. […]
For in vitro culturing of primary human T cell culture, isolated T cells were re-suspended in T cell media (RPMI media supplemented with 10% Fetal calf serum (FCS), 1% Penicillin and moved into two T25 flasks, one with or and one without 100 μM 2-deoxy-2-fluoro-L-fucose. CD3/CD28 antibody coated beads (20 μL/flask) were added to activate the T cells. After 24 hr interleukin 2 (IL2) was added (100 ng/μL). Each time the cells were passaged new IL2 and 2-deoxy-2-fluoro-L-fucose were added. After 10 days in culture, expanded T cells cultured in 2FF were assessed for changes in surface fucosylation by flow cytometry (FIG. 4).
A general note: Flow cytometry measures light scatter and fluorescence of single cells or particles in a stream.

Another experiment deals with A20 cells. The experiment in a line: Anti-tumor activity of purified T cells or 2FF in s.c. A20 tumor bearing Balb/c mice. Particulars: treatment started at 100 mm^3 tumor; daily 20 mM 2FF in drinking water, or 2×10^6 T cells IP; versus untreated animals or T cells from untreated tumor bearing mice. The format is in vivo, mouse (Balb/c). The procedure:
One group received no treatment, the other three group were treated when the A20 cells reached 100 mm^3 and were treated either with daily 20 mM 2FF in the drinking water, 2×10^6 T-cells isolated from control tumor bearing mice injected IP, or 2×10^6 T-cells isolated from 2FF tumor bearing mice injected IP. Animals were monitored for subsequent tumor progression.

A further experiment deals with CD3+ T cells. Kind of experiment: Surface fucosylation of CD3+ T cells isolated from spleens of A20 tumor bearing mice, flow cytometry (surface LCA staining). The format is in vivo, mouse (Balb/c). Particulars: T cells from A20 tumor bearing mice treated with 20 mM 2FF in drinking water, LCA staining (FIG. 3). How it is done:
Mice from the untreated and 2FF treated group were sacrificed and spleens taken for CD3 T-cell enrichment. In brief spleens were collected in RPMI containing 2% FBS and cell suspensions passed through a 70 μm mesh nylon strainer washed with 2% RPMI. Cells were suspended in 10 mls of ACK lysis buffer and incubate for 5 min in this buffer to get rid of RBCs. Cells were centrifuged at 300×g for 5 minutes and re-suspended in PBS containing 2% FBS and 1 mM EDTA. T-cells were isolated using EasySep mouse T cell isolation kit as per the manufactures recommendation. Briefly, cells were re-suspended at 10^8 cells/mL to which 50 μL/mL of rat serum was added. Cells were then transferred into a 5 mL polystyrene tube and 50 μL of isolation cocktail added to the sample followed by room temperature incubation for 10 minutes. Rapid spheres were vortexed and 75 μL/mls added followed by room temperature incubation for 2.5 minutes. Sample volume was topped off to 2.5 mL and incubated with the cell isolation magnet for 2.5 minutes. The magnet was inverted and CD3^+ T cells collected and washed twice in RPMI and resuspended at 21.2×10^6 cells/ml.

SMILES strings stand for the structures.

As to `C[C@H](O)[C@@H](O)[C@@H](O)[C@H](F)C=O` [2FF, 2-deoxy-2-fluoro-L-fucose], in the experiment with A20 mouse lymphoma cells, the tumor progression result was “significant delay in tumor progression”. For the same molecule, the “decrease in surface fucosylation” value in the experiment on primary human T cells is listed as “about 85%”. In the experiment on A20 cells, the tumor growth entry was “significantly delayed tumor growth and in some cases tumor regression”. Moreover, the “surface fucosylation of isolated CD3+ T cells” value with CD3+ T cells is “significant reduction in surface fucosylation”.
